Measured values: ChEMBL document CHEMBL3217615, “Novel 3,5-bis(arylidiene)-4-piperidone based monocarbonyl analogs of curcumin: anticancer activity evaluation and mode of action study” (2014)

How the values were obtained:
Format in all cases: functional
SW-620 = experiment: Growth inhibition of human SW620 cells after 48 hrs by sulforhodamine B assay; details: SW-620, 48 h; for CC50: read-out: LC50 (the source's name)
NCI-H322M = experiment: Growth inhibition of human NCI-H322M cells after 48 hrs by sulforhodamine B assay; details: for CC50: read-out: LC50 (the source's name)
[1] = Growth inhibition of human BT549 cells assessed as cell growth at 10^-4 M after 48 hrs by sulforhodamine B assay; details: BT-549, 48 h, read-out: Activity
U-251 = experiment: Growth inhibition of human U251 cells assessed as cell growth at 10^-4 M after 48 hrs by sulforhodamine B assay; details: U-251, 48 h, read-out: Activity
COLO 205 [2] = experiment: Induction of apoptosis in human COLO205 cells assessed as caspase 3/7 activation at 10 uM by FLICA
RPMI-8226 = experiment: Growth inhibition of human RPMI8226 cells assessed as cell growth at 10^-4 M after 48 hrs by sulforhodamine B assay; details: RPMI-8226, 48 h, read-out: Activity
SR = experiment: Growth inhibition of human SR cells assessed as cell growth at 10^-8 M after 48 hrs by sulforhodamine B assay; details: for growth at 0.01 µM: read-out: Activity; for TGI: read-out: pTGI (converted)
CCRF-CEM [3] = experiment: Growth inhibition of human CCRF-CEM cells assessed as cell growth at 10^-4 M after 48 hrs by sulforhodamine B assay; details: read-out: Activity
MDA-MB-231 = experiment: Growth inhibition of human MDA-MB-231 cells after 48 hrs by sulforhodamine B assay; details: MDA-MB-231, 48 h
[4] = Growth inhibition of human HOP92 cells assessed as cell growth at 10^-6 M after 48 hrs by sulforhodamine B assay; details: HOP-92, 48 h, read-out: Activity
KM12 = experiment: Growth inhibition of human KM12 cells assessed as cell growth at 10^-6 M after 48 hrs by sulforhodamine B assay; details: KM12, 48 h, read-out: Activity
M14 = experiment: Growth inhibition of human M14 cells assessed as cell growth at 10^-4 M after 48 hrs by sulforhodamine B assay; details: M14, 48 h, read-out: Activity
PC-3 [5] = experiment: Growth inhibition of human PC3 cells after 48 hrs by sulforhodamine B assay; details: PC-3, 48 h; for CC50: read-out: LC50 (the source's name)
COLO 205 [6] = experiment: Induction of apoptosis in human COLO205 cells at 10 uM after 24 hrs by Annexin V/propidium iodide staining-based fluorescence microscopy
COLO 205 [7] = experiment: Induction of apoptosis in human COLO205 cells assessed as necrotic apoptosis cells level at 10 uM after 24 hrs by Annexin V/propidium iodide staining-based fluorescence microscopy
[8] = Growth inhibition of human Hs 578T cells after 48 hrs by sulforhodamine B assay
TK-10 [9] = experiment: Growth inhibition of human TK10 cells assessed as cell growth at 10^-6 M after 48 hrs by sulforhodamine B assay; details: TK-10, 48 h, read-out: Activity
[10] = Growth inhibition of human Hs 578T cells assessed as cell growth at 10^-8 M after 48 hrs by sulforhodamine B assay
PC-3 [11] = experiment: Growth inhibition of human PC3 cells assessed as cell growth at 10^-6 M after 48 hrs by sulforhodamine B assay; details: PC-3, 48 h, read-out: Activity
[12] = Growth inhibition of human Hs 578T cells assessed as cell growth at 10^-7 M after 48 hrs by sulforhodamine B assay; details: read-out: Activity
TK-10 [13] = experiment: Growth inhibition of human TK10 cells assessed as cell growth at 10^-4 M after 48 hrs by sulforhodamine B assay; details: TK-10, 48 h, read-out: Activity
HOP-62 = experiment: Growth inhibition of human HOP62 cells assessed as cell growth at 10^-4 M after 48 hrs by sulforhodamine B assay; details: HOP-62, 48 h, read-out: Activity
[14] = Growth inhibition of human Hs 578T cells assessed as cell growth at 10^-4 M after 48 hrs by sulforhodamine B assay; details: read-out: Activity
TK-10 [15] = experiment: Growth inhibition of human TK10 cells assessed as cell growth at 10^-7 M after 48 hrs by sulforhodamine B assay; details: TK-10, 48 h, read-out: Activity
CCRF-CEM [16] = experiment: Growth inhibition of human CCRF-CEM cells assessed as cell growth at 10^-6 M after 48 hrs by sulforhodamine B assay; details: read-out: Activity
TK-10 [17] = experiment: Growth inhibition of human TK10 cells after 48 hrs by sulforhodamine B assay; details: TK-10, 48 h
[18] = Growth inhibition of human Hs 578T cells assessed as cell growth at 10^-6 M after 48 hrs by sulforhodamine B assay; details: read-out: Activity
TK-10 [19] = experiment: Growth inhibition of human TK10 cells assessed as cell growth at 10^-8 M after 48 hrs by sulforhodamine B assay; details: TK-10, 48 h
[20] = read-out: LC50 (the source's name)

With `O=C1/C(=C/c2ccc(Cl)cc2Cl)CN(S(=O)(=O)c2ccccc2)C/C1=C\c1ccc(Cl)cc1Cl` the GI50 (SW-620) was 317 nM, the TGI (SW-620) was 2790 nM and the CC50 (SW-620) was > 100000 nM. For the same compound, the GI50 (NCI-H322M) was 680 nM, the TGI (NCI-H322M) was 3560 nM and the CC50 (NCI-H322M) was > 100000 nM. The growth at 100 µM [1] was -42%, the growth at 100 µM (U-251) was -63% and the Activity (COLO 205 [2]) was 35.5%. For the same compound, the growth at 100 µM (RPMI-8226) was -35%, the GI50 (SR) was 186 nM and the LC50 (SR) was > 100000 nM. The growth at 0.01 µM (SR) was 93%, the TGI (SR) was 871 nM and the growth at 100 µM (CCRF-CEM [3]) was -19%. It also gave a GI50 (MDA-MB-231) of 466 nM, a TGI (MDA-MB-231) of 2160 nM and a growth at 1 µM [4] of 72%. For the same compound, the growth at 1 µM (KM12) was -30%, the growth at 100 µM (M14) was 31% and the GI50 (PC-3 [5]) was 291 nM. The TGI (PC-3 [5]) was 1030 nM, the CC50 (PC-3 [5]) was > 100000 nM and the Activity (COLO 205 [6]) was 66%. It also gave an Activity (COLO 205 [7]) of 1%.

For `Cc1ccc(S(=O)(=O)N2C/C(=C\c3cc(F)cc(F)c3)C(=O)/C(=C/c3cc(F)cc(F)c3)C2)cc1`, the GI50 [8] was 399 nM, the TGI [8] was 18600 nM and the CC50 [8, 20] was > 100000 nM. The GI50 (SW-620) was 72.1 nM, the TGI (SW-620) was 305 nM and the CC50 (SW-620) was 1450 nM. The growth at 1 µM (TK-10 [9]) was 52%, the GI50 [10] was 398 nM and the LC50 [10] was > 100000 nM. The growth at 0.01 µM ([10]; read-out: Activity) was 92%, the TGI ([10]; read-out: pTGI (converted)) was 18600 nM and the GI50 (NCI-H322M) was 4700 nM. The TGI (NCI-H322M) was 22800 nM, the CC50 (NCI-H322M) was > 100000 nM and the growth at 1 µM (PC-3 [11]) was -9%. For the same compound, the growth at 100 µM [1] was -95%, the growth at 100 µM (U-251) was -96% and the growth at 0.1 µM [12] was 93%. For the same compound, the growth at 100 µM (TK-10 [13]) was -85%, the Activity (COLO 205 [2]) was 41.5% and the growth at 100 µM (HOP-62) was -93%. The growth at 100 µM [14] was -23%, the growth at 0.1 µM (TK-10 [15]) was 106% and the growth at 100 µM (RPMI-8226) was -50%. The GI50 (SR) was 34.7 nM, the LC50 (SR) was > 100000 nM and the growth at 0.01 µM (SR) was 93%. It also gave a TGI (SR) of 251 nM, a growth at 1 µM (CCRF-CEM [16]) of -1% and a growth at 100 µM (CCRF-CEM [3]) of -29%. The GI50 (MDA-MB-231) was 270 nM, the TGI (MDA-MB-231) was 784 nM and the CC50 (MDA-MB-231; [20]) was 8480 nM. It also gave a GI50 (TK-10 [17]) of 1030 nM, a TGI (TK-10 [17]) of 2960 nM and a CC50 (TK-10 [17]; [20]) of 8460 nM. It also gave a growth at 1 µM [4] of 55%, a growth at 100 µM (M14) of -86% and a GI50 (PC-3 [5]) of 248 nM. For the same compound, the TGI (PC-3 [5]) was 803 nM, the CC50 (PC-3 [5]) was 9280 nM and the Activity (COLO 205 [6]) was 70%. The growth at 1 µM [18] was 22%, the Activity (COLO 205 [7]) was 3% and the GI50 (TK-10 [19]) was 1020 nM. The LC50 (50% lethal concentration) (TK-10 [19]) was 8510 nM, the growth at 0.01 µM (TK-10 [19]; read-out: Activity) was 103% and the TGI (TK-10 [19]; read-out: pTGI (converted)) was 2950 nM.
